According to US6238873A, “Methods of screening for agonists and antagonists of the interaction between the human KIAA0001 receptor and ligands thereof” (Smithkline Beecham Corporation, priority 1999, dated 2001):

What was measured:
human KIAA0001 receptor [1] = target: T1, human KIAA0001 receptor (Homo sapiens, UniProt Q15391); assay: Specificity of response: nucleotide di-phosphate sugar spotted onto agar plate infused with yeast carrying human KIAA0001 receptor and FUS1-LacZ reporter; assay type: cell-based; conditions: 10 nmoles (1 microliter of 10 mM solution) spotted onto agar plate
T1 sequence (Q15391 1-338): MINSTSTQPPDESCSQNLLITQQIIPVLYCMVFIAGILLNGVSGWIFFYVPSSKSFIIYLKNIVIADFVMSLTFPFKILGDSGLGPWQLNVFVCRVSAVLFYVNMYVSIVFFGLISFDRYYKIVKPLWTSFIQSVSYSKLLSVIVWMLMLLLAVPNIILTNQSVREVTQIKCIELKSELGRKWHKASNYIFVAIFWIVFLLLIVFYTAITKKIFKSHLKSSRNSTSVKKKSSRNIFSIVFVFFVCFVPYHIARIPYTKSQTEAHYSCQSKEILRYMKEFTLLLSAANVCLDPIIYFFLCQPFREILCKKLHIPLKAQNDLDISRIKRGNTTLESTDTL
Experimental: The specificity of this response was determined by spotting 10 nmoles (1 microliter of 10 mM solution) of each nucleotide di-phosphate sugar onto an agar plate infused with a yeast strain carrying the human KIAA0001 receptor and the FUS1-LacZ reporter, as described above.

human KIAA0001 receptor [2] = target: T1, human KIAA0001 receptor; conditions: FUS1-LacZ yeast expressing human KIAA0001 receptor

SMILES | response on agar plate (FUS1-LacZ reporter) (human KIAA0001 receptor [1]) | response determined by expression of -galactosidase (human KIAA0001 receptor [2])
Nc1ncnc2c1ncn2[C@@H]1O[C@H](COP(=O)(O)OP(=O)(O)O[C@H]2O[C@H](CO)[C@@H](O)[C@H](O)[C@H]2O)[C@@H](O)[C@H]1O [ADP-glucose] | failed to produce a response | 
Nc1ncnc2c1ncn2[C@@H]1O[C@H](COP(=O)(O)OP(=O)(O)O[C@H]2O[C@H](CO)[C@@H](O)[C@H](O)[C@@H]2O)[C@@H](O)[C@H]1O [ADP-mannose] | failed to produce a response | 
Nc1ncnc2c1ncn2[C@@H]1O[C@H](COP(=O)(O)OP(=O)(O)OC[C@H]2OC(O)[C@H](O)[C@@H]2O)[C@@H](O)[C@H]1O (stereo partly drawn) [ADP-ribose] | failed to produce a response | 
Nc1ccn([C@@H]2O[C@H](COP(=O)(O)OP(=O)(O)O[C@H]3O[C@H](CO)[C@@H](O)[C@H](O)[C@H]3O)[C@@H](O)[C@H]2O)c(=O)n1 [CDP-glucose] | failed to produce a response | 
C[C@@H]1O[C@H](OP(=O)(O)OP(=O)(O)OC[C@H]2O[C@@H](n3cnc4c(=O)[nH]c(N)nc43)[C@H](O)[C@@H]2O)[C@@H](O)[C@H](O)[C@@H]1O [GDP-fucose] | failed to produce a response | 
Nc1nc2c(ncn2[C@@H]2O[C@H](COP(=O)(O)OP(=O)(O)O[C@H]3O[C@H](CO)[C@@H](O)[C@H](O)[C@H]3O)[C@@H](O)[C@H]2O)c(=O)[nH]1 [GDP-glucose] | failed to produce a response | 
Cc1cn([C@H]2C[C@H](O)[C@@H](COP(=O)(O)OP(=O)(O)O[C@H]3O[C@H](CO)[C@@H](O)[C@H](O)[C@H]3O)O2)c(=O)[nH]c1=O [TDP-glucose] | failed to produce a response | 

Continued, values first:

response on agar plate (FUS1-LacZ reporter) (human KIAA0001 receptor [1]) | response determined by expression of -galactosidase (human KIAA0001 receptor [2]) | SMILES
failed to produce a response |  | Nc1nc2c(ncn2[C@@H]2O[C@H](COP(=O)(O)OP(=O)(O)O[C@H]3O[C@H](CO)[C@@H](O)[C@H](O)[C@@H]3O)[C@@H](O)[C@H]2O)c(=O)[nH]1 [GDP-mannose]
positive response | receptor-dependentresponse | CC(=O)N[C@H]1[C@@H](OP(=O)(O)OP(=O)(O)OC[C@H]2O[C@@H](n3ccc(=O)[nH]c3=O)[C@H](O)[C@@H]2O)O[C@H](CO)[C@@H](O)[C@@H]1O [UDP-N-acetyl glucosamine]
positive response | receptor-dependentresponse | O=C(O)[C@H]1O[C@H](OP(=O)(O)OP(=O)(O)OC[C@H]2O[C@@H](n3ccc(=O)[nH]c3=O)[C@H](O)[C@@H]2O)[C@H](O)[C@@H](O)[C@@H]1O [UDP-glucuronic acid]
